Read-outs that look alike come from different tables or passages of the source.
Experiments:
[1] = assay type: in vitro ADME; settings: for stability of samples at room temperature: 6 h; for storage of processed samples without change in precision and accuracy: 24 h; for long term stability of samples: 132 days
Procedure: For quantification of letrozole in dog and rabbit plasma a technique based on high performance liquid chromatography with fluorescence detector HPLC-FLD […] using a liquid-liquid extraction with […] as the organic solvent and resuspension for analysis in reverse phase with isocratic elution. Carvedilol was used as the internal standard and the process time was 8.5 min with a letrozole retention time of 7.8 min and applying wavelengths of 240 nm (λ excitation) and 315 nm (λ emission). The validated concentration interval was from 5 (LLOQ) to 500 ng/mL, that is with a lower limit of quantification or minimum quantifiable analyte concentration of the analytical technique of 5 ng/mL and a maximum validated concentration of 500 ng/mL. Calibration curves obtained were characterized with a correlation coefficient of over 0.99. Precision and intra-assay and inter-assay accuracy was less than 20% for the LLOQ and less than 15% for the other QCs, that is, of the other known concentration samples used as quality controls in conducting the analysis. The bioanalytical method was validated over three days and the results met the acceptance criteria described in the FDA guide: “Bioanalytical Method Validation”.
Processed samples could be stored in the sampler at 4° C. for 24 hours without noticing any change in the precision and accuracy of the analysis.

[2] = Letrozole particle size distribution by laser diffraction (Malvern Mastersizer 2000); assay type: physicochemical; settings: % volume; suspended in water until obscuration of 9.41%
Procedure: If not otherwise specified, the particle size distribution was determined by light scattering technique using laser light diffraction in wet mode. It is known that particle size distribution results can be altered as a function of the material treatment such the use of high concentrate surfactant agents and/or strong force energies (vortex, sonication, etc). If nothing else is mentioned, drug is not treated and samples are prepared by direct addition to the tank under moderate stirring (2000-3500 rpm). The methodology applied on present invention to determine the drug particle size distribution mimics in a more faithfully way the behavior of the drug powder on the injectable formulation herein described than other methods which apply force energies to the sample and/or use high concentrate surfactant agents for preparing the samples in order to achieve high degrees of powder disaggregation that cannot be simulated during the manual reconstitution process of the formulation.
Letrozole particle size in formulation 2 was characterized by the technique of laser ray diffraction (Malvern Mastersizer 2000, suspended in water until obscuration of 9.41%) and had the following distribution (in % volume): d(0.1)=38.21 μm, d(0.5)=141.35 μm and d(0.9)=312.13 μm.

effect of cycles of freezing/thawing on stability ([1]; dog): did not affect the stability
stability of samples at room temperature ([1]; dog): up to 6 hours
storage of processed samples without change in precision and accuracy ([1]; dog): 24 h
long term stability of samples ([1]; dog): 132 days
effect of cycles of freezing/thawing on stability ([1]; rabbit): did not affect the stability
stability of samples at room temperature ([1]; rabbit): up to 6 hours
storage of processed samples without change in precision and accuracy ([1]; rabbit): 24 h
long term stability of samples ([1]; rabbit): 132 days
d(0.1) [2]: 38.21 μm
d(0.5) [2]: 141.35 μm
d(0.9) [2]: 312.13 μm
Structure (SMILES): N#Cc1ccc(C(c2ccc(C#N)cc2)n2cncn2)cc1 [Letrozole, 4,4′-(1,2,4-triazol-1-ylmethyl)dibenzonitrile]
